{
  "source": "patent US7396682B2",
  "about": "“Method for cell adhesion and wound healing” (Regen Biotech, Inc., priority 2000, dated 2008)",
  "molecules": {"B1": {"name": "vitronectin: human plasma vitronectin (Promega), coated extracellular matrix protein (protein)", "chain": "DQESCKGRCTEGFNVDKKCQCDELCSYYQSCCTDYTAECKPQVTRGDVFTMPEDEYTVYDDGEEKNNATVHEQVGGPSLTSDLQAQSKGNPEQTPVLKPEEEAPAPEVGASKPEGIDSRPETLHPGRPQPPAEEELCSGKPFDAFTDLKNGSLFAFRGQYCYELDEKAVRPGYPKLIRDVWGIEGPIDAAFTRINCQGKTYLFKGSQYWRFEDGVLDPDYPRNISDGFDGIPDNVDAALALPAHSYSGRERVYFFKGKQYWEYQFQHQPSQEECEGSSLSAVFEHFAMMQRDSWEDIFELLFWGRTSAGTRQPQFISRDWHGVPGQVDAAMAGRIYISGMAPRPSLAKKQRFRHRNRKGYRSQRGHSRGRNQNSRRPSRATWLSLFSSEESNLGANNYDDYRMDWLVPATCEPIQSVFFFSGDKYYRVNLRTRRVDTVDPPYPRSIAQYWLGCPAPGHL"}, "B2": {"name": "βig-h3 D-II: recombinant polypeptide, 2nd fas-1 domain of βig-h3, amino acids 237-377 (SEQ ID NO:24) (protein)", "chain": "STITNNIQQIIEIEDTFETLRAAVAASGLNTMLEGNGQYTLLAPTNEAFEKIPSETLNRILGDPEALRDLLNNHILKSAMCAEAIVAGLSVETLEGTTLEVGCSGDMLTINGKAIISNKDILATNGVIHYIDELLIPDSAK", "modifications": "left off: small tags and cut ends"}},
  "key": {"HCE cells": {"system": "HCE cells", "experiment": "Inhibition assay of HCE cell adhesion using matrix peptides and reagents", "type": "cell-based, human", "settings": "HCE cells preincubated 30 min with reagent; for inhibition of cell adhesion to fibronectin: dishes coated with 10 μg/ml fibronectin; for inhibition of cell adhesion to βig-h3: dishes coated with 10 μg/ml βig-h3", "method": "In order to identify cell surface receptors involved in the cell adhesion activity of βig-h3 protein, an inhibition assay was performed using various reagents.\nInitially, plastic culture dishes were coated with 10 μg/ml fibronectin, βigh3-WT or βigh3-ΔRGD. HCE cells were preincubated for 30 min in media containing 5 mM EDTA, 100 μg/ml βigh3-WT, 100 μg/ml βigh3-ΔRGD, 1 mM RGD, 1 mM RGE or 100 μg/ml fibronectin, or none of them, and then assayed for cell adhesion as in Example 1."}, "K562 cells": {"system": "K562 cells", "experiment": "K562 cell adhesion to coated proteins (hexosaminidase analysis)", "type": "cell-based", "settings": "1 hour", "method": "For another control experiment, K562 cells, known to express α5, but not α3 integrin, were used. K562 cells were inoculated onto plates coated with βigh3-WT, fibronectin, laminin, or type I collagen and incubated for 1 hour, followed by the hexosaminidase analysis."}, "[1]": {"system": "Human corneal epithelial (HCE) cells", "experiment": "HCE cell adhesion and spreading assay on protein-coated plates", "type": "cell-based", "settings": "HCE cells on coated recombinant protein", "method": "Human corneal epithelial (HCE) cells used in this assay were cultured in DMEM ([…], Gibco BRL) supplemented with 15% fetal bovine serum, Gentamicin (40 μg/ml), insulin (5 μg/ml), cholera toxin (0.1 μg/ml) and human epidermal growth factor (hEGF) at 37° C. in 5% CO2.\nThe cell adhesion assay was performed as follows. First, the recombinant βig-h3 proteins or other extracellular matrix proteins were let to adhere to the bottoms of 96-well microculture plates (Falcon) by incubation at 37° C. for 1 hour and blocked with PBS containing 0.2% BSA. The coated extracellular matrix proteins were human plasma vitronectin (Promega), purified human plasma fibronectin (pFN), chicken collagen types I and II (Chemicon International Inc.), bovine collagen types IV and VI (Chemicon), mouse laminin (Chemicon), and bovine serum albumin (BSA) (Sigma). Cells were trypsinized and suspended in the culture media at a density of 2×10^5 cells/ml. 0.1 ml of the cell suspension was added to each well of the plates coated with the recombinant proteins.\nFollowing incubation at 37° C. for 1 hour, unattached cells were removed by rinsing with PBS. Attached cells were incubated for 1 hour at 37° C. in 50 mM citrate buffer, pH 5.0, containing 3.75 mM p-nitrophenol-N-acetyl 1-β-D-glycosaminide as a hexosaminidase substrate and 0.25% Triton X-100, followed by the addition of 50 mM glycine buffer, pH 10.4, containing 5 mM EDTA to block the enzyme activity. A measurement was made of absorbance at 405 nm in a Multiskan MCC/340 microplate reader.\nTo determine cell area as an index for cell adhesion activity, 4×10^4 cells were applied to substrates in 48-well culture plates. The attached cells were fixed weith 8% glutaraldehyde (Sigma) and then stained with 0.25% Crystal Violet (Sigma) in 20% methanol. Measurement of cell areas was performed by Image-Pro plus software (Media Cybernetics). Experiments were repeated in triplicate with 200 or 300 measurements per site for each experiment. Data is reported as the mean area at specific time points±standard error of mean."}},
  "note": "Entries after “also recorded” stand apart in the source; their conditions may differ.",
  "data": [
    {"molecule": "RGD peptide: Arg-Gly-Asp peptide used at 1 mM in inhibition assay", "values": [
      {"measurement": "inhibition of cell adhesion to fibronectin", "setting": "HCE cells", "value": "significantly inhibited"},
      {"measurement": "inhibition of cell adhesion to βig-h3", "setting": "HCE cells", "value": "significantly inhibited"}
    ]},
    {"molecule": "RGE peptide: RGE peptide used at 1 mM in inhibition assay", "values": [
      {"measurement": "inhibition of cell adhesion to βig-h3", "setting": "HCE cells", "value": "not inhibited"}
    ]},
    {"molecule": "O=C(O)CN(CCN(CC(=O)O)CC(=O)O)CC(=O)O", "note": "[EDTA]", "values": [
      {"measurement": "inhibition of cell adhesion to fibronectin", "setting": "HCE cells", "value": "significantly inhibited"},
      {"measurement": "inhibition of cell adhesion to βig-h3", "setting": "HCE cells", "value": "significantly inhibited"}
    ]},
    {"molecule": "O=C(O)CN(CCOCCOCCN(CC(=O)O)CC(=O)O)CC(=O)O", "note": "[EGTA]", "values": [
      {"measurement": "inhibition of cell adhesion to fibronectin", "setting": "HCE cells", "value": "partially inhibited"},
      {"measurement": "inhibition of cell adhesion to βig-h3", "setting": "HCE cells", "value": "partially inhibited"}
    ]},
    {"molecule": "B1", "values": [
      {"measurement": "adhesion of K562 cells to coated protein", "setting": "K562 cells", "value": "adhered"}
    ]},
    {"molecule": "B2", "values": [
      {"measurement": "HCE cell adhesion activity", "setting": "[1]", "value": "equally active compared to the wild type βig-h3; also recorded: high cell attachment activity"}
    ]}
  ]
}
